Activity calls are given as the source filed them. The calls are words filed in the database; no cut-off is given here.
Assays:
[1] = test system: A549; test: Cytotoxicity against human A549 cells after 48 hrs by fluorescence assay; type: functional; conditions: A549, 48 h
[2] = Inhibition of TNFalpha induced NF-kappaB activation in human A549 cells by luciferase reporter gene assay; type: cell-based
[3] = test system: NCI-H2009; test: Cytotoxicity against human NCI-H2009 cells after 48 hrs by fluorescence assay; type: functional; conditions: NCI-H2009, 48 h
[4] = molecular target: T1, Interleukin-1 receptor-associated kinase 4 (Homo sapiens) (UniProt Q9NWZ3); test: Inhibition of IRAK4 at 10 uM
T1 sequence (whole entry): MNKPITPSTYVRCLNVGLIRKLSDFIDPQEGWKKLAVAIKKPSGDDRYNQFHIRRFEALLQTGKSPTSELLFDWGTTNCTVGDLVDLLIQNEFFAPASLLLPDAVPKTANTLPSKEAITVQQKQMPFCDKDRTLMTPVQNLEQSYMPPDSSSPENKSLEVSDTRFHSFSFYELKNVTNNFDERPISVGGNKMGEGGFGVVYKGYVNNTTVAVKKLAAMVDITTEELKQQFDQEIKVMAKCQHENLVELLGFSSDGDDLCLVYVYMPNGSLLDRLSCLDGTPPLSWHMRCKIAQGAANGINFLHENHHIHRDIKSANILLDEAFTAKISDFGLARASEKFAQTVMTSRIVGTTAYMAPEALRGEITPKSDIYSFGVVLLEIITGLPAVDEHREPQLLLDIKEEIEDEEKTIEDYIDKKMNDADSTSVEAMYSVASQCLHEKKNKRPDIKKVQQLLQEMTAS

[5] = test system: NCI-H2009; test: Anticancer activity against human NCI-H2009 cells xenografted in SCID mouse assessed as suppression of tumor growth at 1 mg/day, ip treated 6 days in a week for 5 weeks; type: functional
[6] = molecular target: T2, Inhibitor of nuclear factor kappa-B kinase subunit beta (Homo sapiens) (UniProt O14920); test: Inhibition of IKK-beta at 10 uM
T2 sequence (whole entry): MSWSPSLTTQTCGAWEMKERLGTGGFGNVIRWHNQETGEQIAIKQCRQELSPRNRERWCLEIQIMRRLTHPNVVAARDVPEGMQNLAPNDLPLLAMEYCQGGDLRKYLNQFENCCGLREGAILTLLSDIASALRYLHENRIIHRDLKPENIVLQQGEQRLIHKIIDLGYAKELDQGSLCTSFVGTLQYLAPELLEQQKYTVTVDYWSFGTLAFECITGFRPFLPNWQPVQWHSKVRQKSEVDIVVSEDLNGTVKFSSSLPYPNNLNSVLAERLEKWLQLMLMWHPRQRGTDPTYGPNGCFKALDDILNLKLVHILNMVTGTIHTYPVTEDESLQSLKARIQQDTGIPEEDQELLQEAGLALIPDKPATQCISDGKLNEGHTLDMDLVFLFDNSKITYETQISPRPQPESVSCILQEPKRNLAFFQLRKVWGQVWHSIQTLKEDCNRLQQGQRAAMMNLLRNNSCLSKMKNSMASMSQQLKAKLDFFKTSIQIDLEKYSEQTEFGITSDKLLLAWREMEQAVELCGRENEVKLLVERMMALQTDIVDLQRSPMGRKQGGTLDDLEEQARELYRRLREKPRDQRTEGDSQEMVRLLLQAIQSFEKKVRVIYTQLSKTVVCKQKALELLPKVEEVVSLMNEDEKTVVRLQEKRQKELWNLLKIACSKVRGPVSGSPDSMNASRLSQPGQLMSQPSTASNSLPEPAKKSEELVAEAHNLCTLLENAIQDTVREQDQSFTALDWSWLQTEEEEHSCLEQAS

[7] = test system: Mus musculus; test: Toxicity in SCID mouse xenografted with human NCI-H2009 cells assessed as necropsy at 1 mg/day, ip treated 6 days in a week for 5 weeks; type: organism-based; conditions: in vivo
[8] = test system: Mus musculus; test: Toxicity in SCID mouse xenografted with human NCI-H2009 cells at 1 mg/day, ip treated 6 days in a week for 5 weeks; type: organism-based; conditions: in vivo
[9] = test system: Mus musculus; test: Toxicity in SCID mouse xenografted with human NCI-H2009 cells assessed as increase in body weight at 1 mg/day, ip treated 6 days in a week for 5 weeks; type: organism-based; conditions: in vivo
[10] = molecular target: Mitogen-activated protein kinase kinase kinase 7 (TAK1) (Homo sapiens) (UniProt O43318); test: Inhibition of TAK1 at 10 uM
[11] = molecular target: Proto-oncogene tyrosine-protein kinase Src (Homo sapiens) (UniProt P12931); test: Inhibition of c-Src at 10 uM
[12] = molecular target: Interleukin-1 receptor-associated kinase 1 (Homo sapiens) (UniProt P51617); test: Inhibition of IRAK1 at 10 uM
[13] = molecular target: T3, Inhibitor of nuclear factor kappa-B kinase subunit alpha (Homo sapiens) (UniProt O15111); test: Inhibition of IKKalpha at 10 uM
T3 sequence (whole entry): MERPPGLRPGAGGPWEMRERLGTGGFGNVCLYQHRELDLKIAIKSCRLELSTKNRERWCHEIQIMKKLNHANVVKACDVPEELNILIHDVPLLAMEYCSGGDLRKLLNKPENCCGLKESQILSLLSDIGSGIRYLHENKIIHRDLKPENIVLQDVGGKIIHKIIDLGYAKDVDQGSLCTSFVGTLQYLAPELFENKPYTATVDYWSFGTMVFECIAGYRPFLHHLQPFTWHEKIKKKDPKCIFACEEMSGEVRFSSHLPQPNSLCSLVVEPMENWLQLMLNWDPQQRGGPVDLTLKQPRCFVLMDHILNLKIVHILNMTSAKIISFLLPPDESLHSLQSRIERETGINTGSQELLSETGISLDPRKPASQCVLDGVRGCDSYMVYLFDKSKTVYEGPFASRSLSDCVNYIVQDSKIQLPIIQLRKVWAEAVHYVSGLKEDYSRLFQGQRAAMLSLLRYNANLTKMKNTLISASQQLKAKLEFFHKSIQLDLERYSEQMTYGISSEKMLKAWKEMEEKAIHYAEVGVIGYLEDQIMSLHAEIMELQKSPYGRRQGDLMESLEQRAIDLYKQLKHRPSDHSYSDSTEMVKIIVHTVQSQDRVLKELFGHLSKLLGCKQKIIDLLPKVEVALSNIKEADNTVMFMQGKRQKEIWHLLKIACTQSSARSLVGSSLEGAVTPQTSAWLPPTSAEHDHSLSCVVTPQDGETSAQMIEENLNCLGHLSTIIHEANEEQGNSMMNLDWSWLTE

Sequence of Mitogen-activated protein kinase kinase kinase 7 (TAK1) (Homo sapiens) (O43318 whole entry, looked up): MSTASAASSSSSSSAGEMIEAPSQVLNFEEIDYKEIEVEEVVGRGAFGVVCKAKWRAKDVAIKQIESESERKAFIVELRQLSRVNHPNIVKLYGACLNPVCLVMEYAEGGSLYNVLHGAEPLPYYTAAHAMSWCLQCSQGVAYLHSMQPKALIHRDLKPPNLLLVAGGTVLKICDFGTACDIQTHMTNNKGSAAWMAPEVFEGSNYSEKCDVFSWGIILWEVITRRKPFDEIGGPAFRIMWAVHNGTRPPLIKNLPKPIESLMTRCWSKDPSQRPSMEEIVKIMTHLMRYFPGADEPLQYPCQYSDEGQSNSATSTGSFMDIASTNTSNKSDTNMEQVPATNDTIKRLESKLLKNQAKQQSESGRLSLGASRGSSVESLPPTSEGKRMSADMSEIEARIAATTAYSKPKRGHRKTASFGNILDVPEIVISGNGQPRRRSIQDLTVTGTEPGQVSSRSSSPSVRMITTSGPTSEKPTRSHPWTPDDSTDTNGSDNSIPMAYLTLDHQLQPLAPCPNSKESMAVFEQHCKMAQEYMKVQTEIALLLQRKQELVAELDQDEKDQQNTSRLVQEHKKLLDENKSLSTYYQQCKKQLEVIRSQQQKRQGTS
Sequence of Proto-oncogene tyrosine-protein kinase Src (Homo sapiens) (P12931 2-536 limits assumed): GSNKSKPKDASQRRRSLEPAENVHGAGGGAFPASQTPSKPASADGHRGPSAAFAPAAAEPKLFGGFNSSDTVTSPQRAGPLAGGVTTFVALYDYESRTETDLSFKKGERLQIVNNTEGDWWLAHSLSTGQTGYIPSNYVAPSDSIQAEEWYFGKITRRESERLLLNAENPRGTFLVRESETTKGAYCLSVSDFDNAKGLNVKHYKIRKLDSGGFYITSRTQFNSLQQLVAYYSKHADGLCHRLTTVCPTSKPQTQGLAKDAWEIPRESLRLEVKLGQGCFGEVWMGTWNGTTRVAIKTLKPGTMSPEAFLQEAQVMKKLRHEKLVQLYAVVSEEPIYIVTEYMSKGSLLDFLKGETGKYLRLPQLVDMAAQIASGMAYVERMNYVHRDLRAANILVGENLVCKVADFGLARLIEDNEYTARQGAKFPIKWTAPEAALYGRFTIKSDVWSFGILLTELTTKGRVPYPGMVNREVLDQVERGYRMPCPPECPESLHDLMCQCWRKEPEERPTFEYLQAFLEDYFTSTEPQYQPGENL
Sequence of Interleukin-1 receptor-associated kinase 1 (Homo sapiens) (P51617 whole entry, looked up): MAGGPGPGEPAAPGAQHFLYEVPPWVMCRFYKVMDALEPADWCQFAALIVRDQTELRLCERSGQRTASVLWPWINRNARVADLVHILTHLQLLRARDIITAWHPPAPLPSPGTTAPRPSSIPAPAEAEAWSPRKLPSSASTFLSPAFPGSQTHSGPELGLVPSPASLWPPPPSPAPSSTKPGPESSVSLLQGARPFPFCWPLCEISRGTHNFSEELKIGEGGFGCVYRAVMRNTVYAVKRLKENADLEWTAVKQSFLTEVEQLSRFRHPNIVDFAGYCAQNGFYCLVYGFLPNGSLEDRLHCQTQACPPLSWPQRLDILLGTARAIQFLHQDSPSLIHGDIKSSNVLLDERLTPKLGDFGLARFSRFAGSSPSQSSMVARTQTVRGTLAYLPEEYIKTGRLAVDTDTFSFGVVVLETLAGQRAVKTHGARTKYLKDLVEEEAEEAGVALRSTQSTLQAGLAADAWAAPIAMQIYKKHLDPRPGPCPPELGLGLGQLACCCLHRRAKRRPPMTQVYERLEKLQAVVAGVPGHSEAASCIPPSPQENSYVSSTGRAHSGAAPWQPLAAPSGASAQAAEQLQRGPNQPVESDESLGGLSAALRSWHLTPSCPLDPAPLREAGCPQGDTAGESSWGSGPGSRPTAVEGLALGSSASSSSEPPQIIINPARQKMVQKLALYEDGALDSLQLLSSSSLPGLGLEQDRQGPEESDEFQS

Structure (SMILES) | IC50 [2] [µM] | GI50 [1] [µM] | GI50 [3] [µM] | other results
COc1cc(OC)cc(C(=O)/C=C/c2ccc(OC)c(O)c2)c1 | 8.1 | 3.3 | 2.3 | 
COc1cc(C(=O)/C=C/c2ccccc2)cc(OC)c1OC | 8.9 | 8.8 | 6.6 | 
COc1cc(O)c(C(=O)/C=C/c2cccc(Br)c2)c(OC)c1 | 12.3 |  |  | 
COc1cc(O)c(C(=O)/C=C/c2ccccc2C)c(OC)c1 | > 20 |  |  | 
Cc1ccc(C(=O)/C=C/c2ccccc2)cc1 | > 20 |  |  | 
COc1cc(O)c(C(=O)/C=C/c2ccccc2Br)c(OC)c1 | > 20 |  |  | 
O=C(/C=C/c1ccccc1)c1ccc(F)c(F)c1 | > 20 |  |  | 
COc1cc(O)c(C(=O)/C=C/c2ccccc2)c(OC)c1 [FLAVOKAWAIN B] | > 20 |  |  | 
O=C(/C=C/c1ccccc1)c1ccccc1 [CHALCONE] | > 20 |  |  | 
COc1cc(C(=O)/C=C/c2cccc(O)c2)cc(OC)c1OC | 2.3 | 1.7 | 4.2 | 
COc1cc(O)c(C(=O)/C=C/c2ccc(OC)c(O)c2)c(OC)c1 | > 20 |  |  | 
O=C(/C=C/c1ccc(O)cc1)c1ccccc1 [4-HYDROXYCHALCONE] | > 20 |  |  | 
O=C(/C=C/c1ccc(O)cc1)c1ccc(O)cc1O [ISOLIQUIRITIGENIN] | > 20 |  |  | 
COc1ccc(/C=C/C(=O)c2cc(OC)c(OC)c(OC)c2)cc1OCCO | 9.1 | 4.7 | 3.3 | 
COc1ccc(/C=C/C(=O)c2ccc(OC)c(OC)c2)cc1O | 8 | 5.2 | 4.6 | 
COc1ccc(/C=C/C(=O)c2c(O)cc(OC)cc2OC)cc1 [FLAVOKAWAIN A] | > 20 |  |  | 
O=C(/C=C/c1ccccc1)c1ccc(C(F)(F)F)cc1 | > 20 |  |  | 
O=C(/C=C/c1ccc(O)c(O)c1)c1ccc(O)cc1O [BUTEIN] | > 20 |  |  | 
COc1cc(O)c(C(=O)/C=C/c2cc(OC)c(OC)c(OC)c2)c(OC)c1 | > 20 |  |  | 

Continued, in another order:

IC50 [2] [µM] | Structure (SMILES) | GI50 [1] [µM] | GI50 [3] [µM] | other results
11.6 | COc1cc(C(=O)/C=C/c2ccc(O)cc2)cc(OC)c1OC | 8.5 | 4.5 | 
5.1 | COc1ccc(/C=C/C(=O)c2cc(OC)c(OC)c(OC)c2)cc1O | 2.1 | 5.2 | inhibition [4]: 41%; Activity [5]: 57%; inhibition [6]: 46%; Activity [7]: Non-toxic; Activity [8]: Non-toxic; Activity [9]: Non-toxic; inhibition [10]: inactive; inhibition [11]: inactive; inhibition [12]: inactive; inhibition [13]: inactive
> 20 | COc1ccc(CCC(=O)c2cc(OC)c(OC)c(OC)c2)cc1O | 17.6 | 47 | 
> 20 | COc1cc(O)c(C(=O)/C=C/c2ccc(F)cc2)c(OC)c1 |  |  | 
> 20 | O=C(/C=C/c1ccccc1)c1ccccc1O [2'-HYDROXYCHALCONE] |  |  | 
> 20 | CCCOc1ccc(/C=C/C(=O)c2c(O)cc(OC)cc2OC)cc1 |  |  | 
> 20 | COc1cc(O)c(C(=O)/C=C/c2ccc(Cl)cc2)c(OC)c1 |  |  | 
17 | COc1cc(O)c(C(=O)/C=C/c2cccc(C)c2)c(OC)c1 |  |  | 
> 20 | COc1cc(O)c(C(=O)/C=C/c2ccc(OC)c(C)c2)c(OC)c1 |  |  | 
> 20 | O=C(/C=C/c1ccccc1)c1ccc(F)cc1 |  |  | 
14.7 | COc1ccc(/C=C/C(=O)c2cc(OC)c(O)c(OC)c2)cc1O | 4 | 7.5 | 
5.9 | COc1ccc(/C=C/C(=O)c2cc(OC)c(OC)c(OC)c2)cc1OCCN | 5.6 | 3.6 | 
1.9 | COc1cc(C(=O)/C=C/c2ccc(O)c(O)c2)cc(OC)c1OC | 2.6 | 1.1 | 
19.3 | COc1ccc(/C=C/C(=O)c2cc(OC)c(OC)c(OC)c2)cc1 | 12.4 | 8.4 | 

Reference: ChEMBL document CHEMBL1156143, “Structure-activity relationship studies of chalcone leading to 3-hydroxy-4,3',4',5'-tetramethoxychalcone and its analogues as potent nuclear factor kappaB inhibitors and their anticancer activities” (J Med Chem, 2009)
